This note sets out measurements from patent US11834480B2 (priority 2020, dated 2023).

The target in test [1] is D-form of SARS-CoV-2 HR1 (SARS CoV-2 D-HR1-biotin) (Severe acute respiratory syndrome coronavirus 2, UniProt P0DTC2). It is filed as binding.
In test [2] the test system is SARS CoV-2 pseudotyped lentivirus. It is filed as cell-based. The following applies: read-out: observed IC50, inhibition of pseudotyped virus infection.
In test [3] the target is L-form of SARS-CoV-2 HR1 (SARS CoV-2 HR1-biotin) (Severe acute respiratory syndrome coronavirus 2, UniProt P0DTC2). Briefly: biochemical. It is filed as binding.

Square brackets hold non-standard residues; d marks the D form.

As for “ATVKFTYQGEEKQVDISKIKYVLRIGQAIWFRYDEGGGAIGNGWVSEEDAPKELLQMLEKR [SEQ ID NO:51]”, the “affinity for SARS CoV-2 D-HR1-biotin compared with parental SEQ ID NO: 11” value in test [1] is recorded as “higher affinity”.
As for “ATVKFTYQGEEKQVDISKIKYVLRIGQAIWFRYDEGGGAIGNGWVSEEDAPKELLQMLGKR [SEQ ID NO:53]”, in test [1], the “affinity for SARS CoV-2 D-HR1-biotin compared with parental SEQ ID NO: 11” value is “higher affinity”.
As to “[dA][dT][dV][dK][dF][dT][dY][dQ]G[dE][dE][dK][dQ][dV][dD][dI][dS][dK][dI][dK][dY][dV][dL][dR][dI]G[dQ][dA][dI][dW][dF][dR][dY][dD][dE]GGG[dA][dI]G[dN]G[dW][dV][dS][dE][dK][dD][dA][dP][dK][dE][dL][dL][dQ][dM][dL][dE][dK][dQ] [SEQ ID NO:12]”, in test [2], the IC50 (usually the concentration that inhibits the measured activity by half) was determined as 2200 nM. Moreover, in test [3], the Kd (as a rule, the constant that tells how readily two partners part at equilibrium) was 814 nM.
